Data on four compounds can be found in publication PMC7026418, “The kinase polypharmacology landscape of clinical PARP inhibitors” (Scientific Reports, 2020).

Read-outs that look alike come from different tables or passages of the source.

What all share (test): biochemical
Design in all cases: DiscoveRx KINOMEscan active site-directed competition binding; percent of control kinase bound to immobilised ligand

One test concerns the target CAMK1D (Homo sapiens, UniProt Q8IU85).
The target of another test is T1, ICK (Homo sapiens, UniProt Q9UPZ9).
T1 construct: gene CILK1
T1 sequence (Q9UPZ9 1-632): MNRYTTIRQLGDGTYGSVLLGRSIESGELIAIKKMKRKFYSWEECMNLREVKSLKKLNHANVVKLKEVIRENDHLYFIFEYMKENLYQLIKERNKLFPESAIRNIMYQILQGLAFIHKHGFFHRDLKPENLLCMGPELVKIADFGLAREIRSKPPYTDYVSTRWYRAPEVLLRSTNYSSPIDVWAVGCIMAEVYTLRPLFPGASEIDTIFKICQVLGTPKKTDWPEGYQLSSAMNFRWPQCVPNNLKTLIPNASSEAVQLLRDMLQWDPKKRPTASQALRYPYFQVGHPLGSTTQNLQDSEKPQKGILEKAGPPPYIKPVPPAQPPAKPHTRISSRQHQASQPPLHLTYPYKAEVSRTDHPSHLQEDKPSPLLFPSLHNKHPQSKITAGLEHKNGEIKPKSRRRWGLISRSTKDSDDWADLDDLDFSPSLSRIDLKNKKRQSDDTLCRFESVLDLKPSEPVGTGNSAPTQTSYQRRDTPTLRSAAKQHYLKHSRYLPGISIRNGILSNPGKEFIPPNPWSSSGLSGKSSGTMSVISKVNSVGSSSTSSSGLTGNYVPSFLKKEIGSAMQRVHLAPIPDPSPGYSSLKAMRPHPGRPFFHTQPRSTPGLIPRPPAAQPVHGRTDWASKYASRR

The next test addresses KIT (Homo sapiens, UniProt P10721).
Another test concerns the target T2, MAPKAPK5 (Homo sapiens, UniProt Q8IW41).
T2 sequence (Q8IW41 1-473): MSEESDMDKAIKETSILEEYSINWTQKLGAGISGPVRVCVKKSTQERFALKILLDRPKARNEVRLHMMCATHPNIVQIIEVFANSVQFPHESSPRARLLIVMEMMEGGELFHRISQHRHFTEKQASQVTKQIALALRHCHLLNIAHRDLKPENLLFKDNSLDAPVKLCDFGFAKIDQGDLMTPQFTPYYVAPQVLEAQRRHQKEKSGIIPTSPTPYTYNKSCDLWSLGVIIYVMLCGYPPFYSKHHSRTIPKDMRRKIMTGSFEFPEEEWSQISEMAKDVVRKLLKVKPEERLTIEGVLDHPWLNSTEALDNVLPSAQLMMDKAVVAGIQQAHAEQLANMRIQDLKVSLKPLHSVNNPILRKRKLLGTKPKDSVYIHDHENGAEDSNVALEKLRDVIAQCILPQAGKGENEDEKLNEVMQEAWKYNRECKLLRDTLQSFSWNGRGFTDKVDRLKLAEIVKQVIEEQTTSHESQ

Another test addresses T3, PDPK1 (Homo sapiens, UniProt O15530).
T3 sequence (O15530 1-556): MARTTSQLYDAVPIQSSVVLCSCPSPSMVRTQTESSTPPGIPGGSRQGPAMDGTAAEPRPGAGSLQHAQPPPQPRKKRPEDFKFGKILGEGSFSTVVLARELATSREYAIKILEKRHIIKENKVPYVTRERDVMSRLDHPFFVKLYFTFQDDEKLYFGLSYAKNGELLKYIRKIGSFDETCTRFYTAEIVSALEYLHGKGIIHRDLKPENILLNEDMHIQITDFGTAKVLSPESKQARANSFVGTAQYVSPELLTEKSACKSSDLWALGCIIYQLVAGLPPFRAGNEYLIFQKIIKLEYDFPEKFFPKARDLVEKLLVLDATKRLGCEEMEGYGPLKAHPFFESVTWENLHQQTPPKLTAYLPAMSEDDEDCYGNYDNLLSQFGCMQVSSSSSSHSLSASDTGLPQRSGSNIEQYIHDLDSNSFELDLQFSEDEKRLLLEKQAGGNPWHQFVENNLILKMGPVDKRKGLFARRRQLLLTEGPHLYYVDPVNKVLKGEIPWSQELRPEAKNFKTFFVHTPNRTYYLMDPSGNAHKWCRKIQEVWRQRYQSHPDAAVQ

Where [1] appears, read: read-out: Niraparib (MK-4827) / %Ctrl @ 10000nM.
The mark [2] stands for this setting: read-out: Olaparib / %Ctrl @ 10000nM.
[3] abbreviates: read-out: Rucaparib / %Ctrl @ 10000nM, binding competition, % of control.
Setting [4] is: read-out: Talazoparib (BMN 673) / %Ctrl @ 10000nM.

Chain of KIT (P10721 whole entry): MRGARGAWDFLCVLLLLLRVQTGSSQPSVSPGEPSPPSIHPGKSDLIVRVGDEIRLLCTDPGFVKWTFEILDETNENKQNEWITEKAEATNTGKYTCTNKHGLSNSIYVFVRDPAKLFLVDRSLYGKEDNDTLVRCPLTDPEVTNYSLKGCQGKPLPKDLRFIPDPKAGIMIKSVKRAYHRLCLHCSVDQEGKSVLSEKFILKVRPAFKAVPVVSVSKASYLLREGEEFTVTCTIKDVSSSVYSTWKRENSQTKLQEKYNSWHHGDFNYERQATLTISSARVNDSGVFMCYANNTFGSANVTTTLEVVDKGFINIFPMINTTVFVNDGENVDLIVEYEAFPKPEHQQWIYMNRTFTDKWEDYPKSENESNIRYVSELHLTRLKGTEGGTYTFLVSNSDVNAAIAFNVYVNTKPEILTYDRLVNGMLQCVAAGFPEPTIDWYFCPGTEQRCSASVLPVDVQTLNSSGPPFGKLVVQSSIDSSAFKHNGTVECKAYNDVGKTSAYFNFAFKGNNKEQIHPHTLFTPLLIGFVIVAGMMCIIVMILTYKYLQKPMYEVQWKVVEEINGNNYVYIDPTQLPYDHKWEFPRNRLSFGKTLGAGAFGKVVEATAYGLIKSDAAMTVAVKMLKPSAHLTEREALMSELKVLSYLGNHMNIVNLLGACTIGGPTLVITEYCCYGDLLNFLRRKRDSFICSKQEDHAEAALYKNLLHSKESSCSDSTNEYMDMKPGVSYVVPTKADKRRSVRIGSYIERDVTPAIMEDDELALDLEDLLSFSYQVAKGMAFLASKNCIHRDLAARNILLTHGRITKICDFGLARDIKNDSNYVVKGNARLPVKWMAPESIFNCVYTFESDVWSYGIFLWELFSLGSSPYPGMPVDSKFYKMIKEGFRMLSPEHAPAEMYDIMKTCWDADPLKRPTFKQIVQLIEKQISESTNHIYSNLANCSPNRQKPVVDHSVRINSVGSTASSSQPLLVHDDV
Chain of CAMK1D (Q8IU85 whole entry): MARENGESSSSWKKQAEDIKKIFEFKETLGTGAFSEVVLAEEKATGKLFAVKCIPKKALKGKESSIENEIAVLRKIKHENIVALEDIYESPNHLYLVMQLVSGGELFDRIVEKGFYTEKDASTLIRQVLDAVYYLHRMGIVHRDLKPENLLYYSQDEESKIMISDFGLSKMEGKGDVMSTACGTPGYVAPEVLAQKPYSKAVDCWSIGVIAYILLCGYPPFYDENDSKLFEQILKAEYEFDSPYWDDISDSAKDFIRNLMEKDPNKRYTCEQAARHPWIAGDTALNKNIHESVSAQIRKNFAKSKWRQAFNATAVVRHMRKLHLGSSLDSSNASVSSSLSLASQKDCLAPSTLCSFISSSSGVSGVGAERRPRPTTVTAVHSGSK

In the case of `NC(=O)c1cccc2cn(-c3ccc([C@@H]4CCCNC4)cc3)nc12` [Niraparib], the percent of control binding at 10 µM amounted to 84% on CAMK1D (setting [1]); 63% on ICK (setting [1]); 87% on KIT (setting [1]); 86% on MAPKAPK5 (setting [1]); 80% at PDPK1 (setting [1]).
As for `O=C(c1cc(Cc2n[nH]c(=O)c3ccccc23)ccc1F)N1CCN(C(=O)C2CC2)CC1` [Olaparib], the percent of control binding at 10 µM worked out at 94% at CAMK1D (setting [2]); 92% at ICK (setting [2]); 99% at KIT (setting [2]); 87% at MAPKAPK5 (setting [2]); 100% at PDPK1 (setting [2]).
With `CNCc1ccc(-c2[nH]c3cc(F)cc4c3c2CCNC4=O)cc1` [Rucaparib], the percent of control binding at 10 µM worked out at 86% on CAMK1D (setting [3]); 64% at ICK (setting [3]); 100% at KIT (setting [3]); 88% at MAPKAPK5 (setting [3]); 97% on PDPK1 (setting [3]).
With `Cn1ncnc1[C@H]1c2n[nH]c(=O)c3cc(F)cc(c23)N[C@@H]1c1ccc(F)cc1` [Talazoparib], the percent of control binding at 10 µM was 91% on CAMK1D (setting [4]); 71% on ICK (setting [4]); 100% on KIT (setting [4]); 93% on MAPKAPK5 (setting [4]); 85% on PDPK1 (setting [4]).
